From paper PMC12142043, “Cell-based high-content approach for SARS-CoV-2 neutralization identifies unique monoclonal antibodies and PI3K pathway inhibitors” (Frontiers in Cell and Developmental Biology, 2025)
Structures can show the parent of a compound that is named as a salt.

System: SARS-CoV-2 (USA-WA1/2020) in Calu-3 cells
Format: cell-based
Conditions: for dsRNA signal, AU High: high dose (10 µM); for dsRNA signal, AU High / dsRNA signal, AU Low: Calu-3, 48 h; for dsRNA signal, AU Low: low dose (100 nM)

| Compound | dsRNA signal, AU High [AU] | dsRNA signal, AU Low [AU] | Reduction of infection in representative images (Figure 4A) |
| --- | --- | --- | --- |
| COc1cc(-c2cc(-c3cccc(O)c3)cnc2N)cc(OC)c1OC [K02288] | 4456.5 | 7061.1 | – |
| COc1ccc(S(=O)(=O)Nc2ccccc2CN(C)C/C=C/c2ccc(Cl)cc2)cc1.Cl [KN-92 hydrochloride] | 0.0 | 14359.5 | – |
| COc1ccc(S(=O)(=O)Nc2ccccc2CN(C)C/C=C/c2ccc(Cl)cc2)cc1.O=P(O)(O)O [KN-92 phosphate] | 4429.3 | 16946.8 | – |
| COc1ccc(S(=O)(=O)N(CCO)c2ccccc2CN(C)C/C=C/c2ccc(Cl)cc2)cc1.O=P(O)(O)O [KN-93 Phosphate] | 4943.4 | 2840.4 | – |
| Nc1ccc(/C=C/C(=O)NCc2cc3cc(-c4ccc(C(=O)N5CCC(F)(F)CC5)cc4)cc(-c4ccc(F)cc4)c3o2)cn1 [KPT-9274] | 6803.0 | 25813.6 | – |
| CCCNC(=O)Nc1ccc(Oc2ncnc3cc(OC)c(OC)cc23)cc1Cl [KRN 633] | 55097.1 | 35164.2 | – |
| O=c1cc(-c2cccc3c2Sc2ccccc2S3)oc(N2CCOCC2)c1 [KU 55933] | 33867.0 | 52307.6 | – |
| C[C@@H]1CN(CC(=O)Nc2ccc3c(c2)Cc2cccc(-c4cc(=O)cc(N5CCOCC5)o4)c2S3)C[C@H](C)O1 [KU-60019] | 31471.9 | 10671.9 | – |
| COc1cc2nccc(Oc3ccc(NC(=O)Nc4ccc(F)cc4F)c(F)c3)c2cc1OC [Ki8751] | 16810.1 | 45822.4 | – |
| COc1cc(Oc2ccnc3cc(OC)c(OC)cc23)ccc1NC(=O)NC(C)c1nccs1 (stereo not drawn) [Ki20227] | 0.0 | 13064.0 | – |
| CC(C)C[C@H](N)C(=O)O [L-Leucine] | 3716.4 | 18120.1 | – |
| COc1ccccc1-c1cc(Nc2cccc(CS(N)(=O)=O)c2)ncn1 [LDC000067] | 31035.0 | 20712.1 | – |
| Cl.c1ccc2c(-c3cnn4cc(-c5ccc(N6CCNCC6)cc5)cnc34)ccnc2c1 [LDN193189 Hydrochloride] | 42525.8 | 24650.0 | – |
| c1ccc2c(-c3cnn4cc(-c5ccc(N6CCNCC6)cc5)cnc34)ccnc2c1 [LDN-193189] | 30043.0 | 7399.9 | – |
| COc1cc(-c2cc(-c3ccc(N4CCNCC4)cc3)cnc2C)cc(OC)c1OC [LDN-214117] | 4693.4 | 28899.6 | – |
| C/C(O)=C(\C#N)C(=O)Nc1cc(Br)ccc1Br [LFM-A13] | 60025.3 | 42758.8 | – |
| c1ccc(-c2[nH]ncc2-c2ccnc3ccccc23)nc1 [LY364947] | 12638.5 | 3456.2 | – |
| O=C1NC(=O)C(c2cnc3ccccn23)=C1c1cn2c3c(cc(F)cc13)CN(C(=O)N1CCCCC1)CC2 [LY2090314] | 16169.3 | 7523.7 | – |
| c1ccc(-c2nn3c(c2-c2ccnc4cc(OCCN5CCOCC5)ccc24)CCC3)nc1 [LY2109761] | 9694.6 | 5823.5 | – |
| Cc1cccc(-c2nn3c(c2-c2ccnc4ccc(C(N)=O)cc24)CCC3)n1 [LY2157299] | 33079.0 | 15107.1 | – |
| CC(C)(C)Cn1c(N)nc2ccc(-c3[nH]c(C(C)(C)C)nc3-c3ccc(F)cc3)nc21 [LY2228820] | 88.7 | 5927.3 | – |
| Cn1cc(-c2ccc(F)c(C(F)(F)F)c2)nc1C1CCN(c2ncnc3[nH]ncc23)CC1 [LY2584702] | 5638.3 | 15579.4 | – |
| Cc1cnc(NC(=O)Nc2cc(Br)c(C)cc2OC[C@@H]2CNCCO2)cn1 [LY2603618] | 13995.2 | 6197.3 | – |
| CCN1CCN(Cc2ccc(Nc3ncc(F)c(-c4cc(F)c5nc(C)n(C(C)C)c5c4)n3)nc2)CC1 [LY2835219 free base] | 59180.8 | 26611.9 | – |
| C[C@@H](Oc1ccc2[nH]nc(/C=C/c3cnn(CCO)c3)c2c1)c1c(Cl)cncc1Cl [LY2874455] | 11432.5 | 3320.6 | – |

| Compound | dsRNA signal, AU High [AU] | dsRNA signal, AU Low [AU] | Reduction of infection in representative images (Figure 4A) |
| --- | --- | --- | --- |
| Cn1nccc1Nc1nccc(-c2cc3c(s2)C(C)(C)N(CCN2CCOCC2)C3=O)n1 [LY3214996] | 4594.5 | 22927.9 | – |
| O=c1cc(N2CCOCC2)oc2c(-c3ccccc3)cccc12 [LY 294002] | 11164.3 | 43579.3 | – |
| COc1cc2nccc(Oc3ccc(NC(=O)NC4CC4)c(Cl)c3)c2cc1C(N)=O [Lenvatinib (E7080)] | 26964.0 | 55504.0 | – |
| CCN(CC)CC(=O)Nc1c(C)cccc1C [Lidocaine] | 26152.6 | 999.3 | – |
| C[C@@H]1O[C@@H](OC[C@H]2O[C@@H](Oc3cc(O)c4c(=O)cc(-c5ccc(O)cc5)oc4c3)[C@H](O[C@@H]3O[C@@H](C)[C@H](O)[C@@H](O)[C@H]3O)[C@@H](O)[C@@H]2O)[C@H](O)[C@H](O)[C@H]1O [Ligustroflavone] | 4049.2 | 6040.1 | – |
| Cc1c(F)cc(C(=O)NC2CC2)cc1-c1ccc(C(=O)NCC(C)(C)C)cn1 [Losmapimod, reference compound] | – | – | poor activity |
| Cn1cnc2c(F)c(Nc3ccc(Br)cc3F)c(C(=O)NOCCO)cc21 [MEK162 (ARRY-162, ARRY-438162)] | 32104.0 | 54835.5 | – |
| COCCNCc1ccc(-c2cc3nccc(Oc4ccc(NC(=S)NC(=O)Cc5ccc(F)cc5)cc4F)c3s2)nc1 [MGCD-265] | 4249.4 | 42710.5 | – |
| O=[N+]([O-])c1ccc(Nc2nc(N3CCOCC3)nc(N3CCOCC3)n2)cc1 [MHY1485] | 4962.4 | 35655.5 | – |
| CN(C[C@@H]1COCCO1)S(=O)(=O)Nc1ccc2ccc3ncc(-c4cnn(C)c4)cc3c(=O)c2c1 [MK-2461] | 19211.6 | 2226.3 | – |
| O=C(O)[C@]1(Cc2cccc(Nc3nccs3)n2)CC[C@@H](Oc2cccc(Cl)c2F)CC1 [MK-5108 (VX-689)] | 3258.6 | 34308.8 | – |
| COc1ccc(-c2cnc3c(-c4cccc5ncccc45)cnn3c2)cc1 [ML347] | 0.0 | 58224.3 | – |
| Cl.O=S(=O)(c1cccc2c(I)cccc12)N1CCCNCC1 [ML-7 hydrochloride] | 19324.6 | 18346.9 | – |
| COc1c(Cl)cc2c([nH]c3cnccc32)c1NC(=O)c1cccnc1C [MLN120B] | 3021.2 | 0.0 | – |
| O=C(O)c1ccc(Nc2ncc3c(n2)-c2ccc(Cl)cc2C(c2c(F)cccc2F)=NC3)cc1 [MLN8054] | 4632.4 | 9929.7 | – |
| COc1cc(Nc2ncc3c(n2)-c2ccc(Cl)cc2C(c2c(F)cccc2OC)=NC3)ccc1C(=O)O [MLN8237 (Alisertib)] | 9976.5 | 32491.8 | – |
| O=[N+]([O-])/C=C/c1ccc2c(c1)OCO2 [MNS] | 1958.5 | 51870.8 | – |
| CCc1ccc(C(=O)COc2ccc(CC3SC(=O)NC3=O)cc2)nc1 (stereo not drawn) [MSDC-0160] | 16528.8 | 15455.5 | – |
| Nc1ccc(O)c(C(=O)O)c1 [Mesalamine] | 17187.6 | 2129.6 | – |
| CN(C)C(=N)N=C(N)N [Metformin HCl] | 10385.6 | 10840.1 | – |
| Cc1cc(=O)[nH]c(=S)[nH]1 [Methylthiouracil] | 61524.3 | 55636.1 | – |
| CCCCCCCCCCCCCCCCOP(=O)([O-])OCC[N+](C)(C)C [Miltefosine] | 27276.6 | 36330.6 | – |
| O=C1c2c(O)ccc(O)c2C(=O)c2c(NCCNCCO)ccc(NCCNCCO)c21 [Mitoxantrone HCl] | 48235.0 | 23848.1 | – |
| COC(=O)c1c2c(c3ccccc3c1O)OC(C)(C)C=C2 [Mollugin] | 394.8 | 5157.1 | – |
| COc1cc(N2CCC(O)CC2)ccc1Nc1cc(Nc2ccccc2S(=O)(=O)C(C)C)c2cc[nH]c2n1 [Mps1-IN-1] | 7290.6 | 34349.9 | – |
